The values below come from ChEMBL document CHEMBL1201862, “PubChem BioAssay data set” (2004).

The structures appear in SMILES notation.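 48-hour exposure; five concentrations; linearly interpolated endpoints. The concentration for 50% growth inhibition is given as GI50.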 Activity calls are given as the source filed them. Cut-off read from the data, not from the text of the source: active = GI50 up to about 1.1 µM and inactive = higher.

What all share (assay): growth of human tumour cells (NCI), 48 h
Assay [1] deals with HT-29.
Assay [2] deals with SF-268.
Assay [3] has as its system SR.
The test system of assay [4] is U-251.
The subject of assay [5] is MDA-MB-231.
The subject of assay [6] is MDA-N.
Assay [7] concerns 786-0.
Assay [8] has as its system OVCAR-5.
For assay [9], the system named is OVCAR-4.
Assay [10] deals with CAKI-1.
The subject of assay [11] is HCT-116.
Assay [12] has as its system HCC 2998.
Assay [13] has as its system OVCAR-8.
Assay [14] concerns SF-295.
The test system of assay [15] is SF-539.
Assay [16] concerns NCI-H522.
The test system of assay [17] is Hs-578T.
In assay [18] the test system is SNB-75.
The subject of assay [19] is SK-MEL-5.
Assay [20] concerns HOP-92.

For the compound `C=C(C)c1cc(C(C)(C)C)cc(C(=C)C)c1S(C)(=O)=O`, the GI50 in assay [1] was > 100 µM (inactive); in assay [2], > 100 µM (inactive); in assay [3] it was > 100 µM (inactive); in assay [4] it was > 100 µM (inactive); in assay [5], 3.91 µM (inactive); in assay [6], > 100 µM (inactive). The GI50 in assay [7], in assay [8], in assay [9], in assay [10], in [11] and in assay [12] was > 100 µM (inactive) in each case. The GI50 in [13], in [14], in assay [15], in assay [16], in assay [17] and in assay [18] was > 100 µM (inactive) each time. The GI50 in assay [19] was > 100 µM (inactive).

As for `COc1cc(C2c3cc4c(cc3OC(Nc3ccccc3)C2C)OCO4)cc(OC)c1OC` (stereo unspecified), the GI50 in [1] was 0.396 µM (active); in assay [2], 1.91 µM (inactive); in assay [3], 0.828 µM (active); in [4], 0.392 µM (active); in assay [5], 2.8 µM (inactive); in assay [6] it was 0.161 µM (active). For the same compound, the GI50 in assay [7] is 0.774 µM (active); in assay [9], 24.7 µM (inactive); in assay [10] it was 0.555 µM (active); in assay [11] it was 0.42 µM (active); in [12], 1.08 µM (active); in assay [13], 1.44 µM (inactive). For the same compound, the GI50 in assay [14] is 0.333 µM (active); in [15], 0.262 µM (active); in [16], 0.337 µM (active); in assay [17], 0.479 µM (active); in assay [18], 3.08 µM (inactive).

Take `O=C(O)CSc1nc2ccccc2[nH]1`: the GI50 in [1], in [2], in assay [3], in assay [20], in assay [4] and in assay [5] was > 100 µM (inactive) throughout. In addition, the GI50 in assay [6], in [7], in [8], in assay [9], in [10] and in [11] was > 100 µM (inactive) throughout. For the same compound, the GI50 in assay [12], in assay [13], in [14], in assay [16], in [17] and in assay [18] was > 100 µM (inactive) throughout.

Consider `O=S(=O)(O)c1cc(O)c(/N=N/c2ccc3ccccc3c2O)c2ccccc12` [ERIOCHROME BLUE BLACK B], for which the GI50 is 24.7 µM (inactive) in assay [1]; 10.5 µM (inactive) in assay [2]; 7.41 µM (inactive) in assay [3]; 28.5 µM (inactive) in assay [20]; 32.4 µM (inactive) in assay [4]; 16.4 µM (inactive) in assay [5]. Also, the GI50 was 5.06 µM (inactive) in assay [6]; 31.4 µM (inactive) in assay [7]; 33.3 µM (inactive) in assay [8]; 78.3 µM (inactive) in [9]; 27 µM (inactive) in assay [10]; 33.4 µM (inactive) in assay [11]. The GI50 is 27.4 µM (inactive) in assay [14]; 15.1 µM (inactive) in [16]; 40.8 µM (inactive) in [17]; 16.7 µM (inactive) in [18]; 11.9 µM (inactive) in [19].
